Counter-ions that a name gives are not always drawn. Like-named read-outs stand apart in the source and are kept apart here.
Columns and labels:
rats [1] = assay: Paw Thermal Stimulator (Hotbox) Model; assay type: in vivo; conditions: rat, i.p., tested 0.62 to 6.2 μmol/kg
Source text: For assessing nociceptive responses to an acute thermal stimulus, a commercially available paw thermal stimulator was utilized (Anesthesiology Research Laboratory, Department of Anesthesiology, University of California at San Diego, La Jolla, Calif.). This device has been previously described (Dirig, D. M. and Yaksh, T. L., Pain, 62: 321-328, 1995) and is based on the initial work of Hargreaves et al. (Pain, 32: 77-88, 1988). Rats were placed in Plexiglas cubicles that were located on a glass surface of the apparatus. The surface of the glass was maintained at 30° C. A thermal stimulus was applied to the bottom of the rear foot of the rat via a movable focused projection bulb. The stimulus current was maintained at 4.8 Amps. The latency until the animal moved its foot from the stimulus was recorded automatically by use of photodiode motion sensors. In the current studies, a 20 second cut-off was employed to limit possible tissue damage following exposure to the stimulus.
All studies began with a 20 min acclimation period. Following the acclimation period, a baseline measure was determined for each animal. Following determination of baseline, treatments were administered and measures were taken at various time points following treatment (e.g., 15, 30, and 45 min). For clarity, data were collapsed over time for statistical analysis (unless otherwise noted).
Stock solutions of compounds were prepared in absolute ethanol at a concentration of 62 μmol/ml. From this, solutions were made with 10% ethanol, and dosed by injection i.p. Compounds were tested in the dose range of from 0.62 to 6.2 μmol/kg.
For measurements, the following protocol was utilized. Six animals were used in each run. For any given measure (e.g., time point), one foot of each of the 6 animals was tested and then the process was repeated for the opposite foot. Mean values for the response were then computed based on the two scores.

rats [2] = assay: Chung Model of Neuropathic Pain; assay type: in vivo; parameters: key: NS = no significant effect observed relative to saline controls at the doses tested; conditions: rat, 50% threshold to VonFrey hairs
[3] = biological target: T1, neuronal nicotinic acetylcholine receptors (Rattus norvegicus, UniProt P09483+P12390); assay: [3H]-cytisine binding to neuronal nicotinic acetylcholine receptors, whole rat brain membranes; conditions: [3H]-cytisine 1.25 nM, whole rat brain membranes; read-out: [3H] CYT Ki
T1 construct: crude synaptic membrane preparations from whole rat brain; from tissue; host or cells: whole rat brain, crude synaptic membranes
Protocol: Protocol for Determination of Nicotinic Acetylcholine Channel Receptor Binding Potencies of Ligands
Binding of [^3H]-cytisine ([^3H]-CYT) to neuronal nicotinic acetylcholine receptors was accomplished using crude synaptic membrane preparations from whole rat brain (Pabreza et al., Molecular Pharmacol., 1990, 39:9). Washed membranes were stored at −80° C. prior to use. Frozen aliquots were slowly thawed and resuspended in 20 volumes of buffer (containing: 120 mM NaCl, 5 mM KCl, 2 mM MgCl2, 2 mM CaCl2 and 50 mM Tris-Cl, pH 7.4 @4° C.). After centrifuging at 20,000×g for 15 minutes, the pellets were resuspended in 30 volumes of buffer. Homogenate (containing 125-150 μg protein) was added to triplicate tubes containing concentrations of test compound and [^3H]-CYT (1.25 nM) in a final volume of 500 μL. Samples were incubated for 60 minutes at 4° C., then rapidly filtered through Whatman GF/B filters presoaked in 0.5% polyethyleneimine using 3×4 mL of ice-cold buffer. The filters are counted in 4 mL of Ecolume® (ICN). Nonspecific binding was determined in the presence of 10 μM (−)-nicotine and values were expressed as a percentage of total binding.

mice = assay: Mouse Hot Plate Paradigm; assay type: in vivo; conditions: ip, 0.5 h, i.p., 30 minutes prior to testing, 55° C., read-out: MED Hot plate model (μmol/kg, i.p.)
[4] = biological target: T2, peripheral ganglionic receptors (Homo sapiens, UniProt P30926+P32297); assay: 86Rb+ flux activation in IMR-32 human neuroblastoma cells; assay type: cell-based; conditions: 1 μM compound, % of maximum response to (S)-nicotine
T2 construct: Cells of the IMR-32 human neuroblastoma clonal cell line (ATCC, Rockville, Md.); host or cells: IMR-32 human neuroblastoma cells
Protocol: Protocol for the Determination of Ability of Nicotinic Acetylcholine Receptor Ligands to Activate Peripheral Ganglionic Receptors
Cells of the IMR-32 human neuroblastoma clonal cell line (ATCC, Rockville, Md.) were maintained in a log phase of growth according to established procedures. Experimental cells were seeded at a density of 500,000 cells/mL into a 24-well tissue culture dish. Plated cells were allowed to proliferate for at least 48 hours before loading with 2 μCi/mL of ^86Rb^+ (35 Ci/mmol) overnight at 37° C. The ^86Rb^+ efflux assays were performed according to previously published protocols (Lukas, R. J., J. Pharmacol. Exp. Ther., 265: 294-302, 1993) except serum-free Dulbecco's Modified Eagle's Medium was used during the ^86Rb^+ loading, rinsing, and agonist-induced efflux steps. Data reflect the activation of ^86Rb^+ flux at a concentration of 1 μM, and reflect the response as a percentage of the maximum response elicited by (S)-nicotine.

rat spinal cord cultures = assay: Neuroprotection against substance P or glutamate toxicity in primary spinal cord cultures (LDH release); assay type: cell-based; conditions: for block of SP-induced toxicity: SP 30 μM, spantide II 100 μM, MK-801

T1 sequence (P09483 31-630): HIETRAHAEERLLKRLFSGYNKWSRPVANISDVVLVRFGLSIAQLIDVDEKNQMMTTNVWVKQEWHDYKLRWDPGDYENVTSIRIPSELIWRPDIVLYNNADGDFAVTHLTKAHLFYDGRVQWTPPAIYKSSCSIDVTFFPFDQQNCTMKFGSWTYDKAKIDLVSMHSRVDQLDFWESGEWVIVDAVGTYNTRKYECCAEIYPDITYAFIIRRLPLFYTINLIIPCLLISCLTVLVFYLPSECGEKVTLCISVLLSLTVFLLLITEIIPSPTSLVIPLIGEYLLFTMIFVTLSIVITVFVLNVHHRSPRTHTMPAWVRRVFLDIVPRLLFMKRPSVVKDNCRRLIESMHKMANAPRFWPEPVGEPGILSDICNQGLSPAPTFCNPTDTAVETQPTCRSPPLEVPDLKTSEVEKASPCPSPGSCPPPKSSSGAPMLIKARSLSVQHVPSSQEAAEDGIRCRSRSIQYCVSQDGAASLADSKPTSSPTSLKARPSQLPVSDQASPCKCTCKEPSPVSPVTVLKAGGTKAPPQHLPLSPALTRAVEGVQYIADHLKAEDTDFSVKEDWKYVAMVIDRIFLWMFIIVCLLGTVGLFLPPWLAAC
T1 sequence (P12390 25-500): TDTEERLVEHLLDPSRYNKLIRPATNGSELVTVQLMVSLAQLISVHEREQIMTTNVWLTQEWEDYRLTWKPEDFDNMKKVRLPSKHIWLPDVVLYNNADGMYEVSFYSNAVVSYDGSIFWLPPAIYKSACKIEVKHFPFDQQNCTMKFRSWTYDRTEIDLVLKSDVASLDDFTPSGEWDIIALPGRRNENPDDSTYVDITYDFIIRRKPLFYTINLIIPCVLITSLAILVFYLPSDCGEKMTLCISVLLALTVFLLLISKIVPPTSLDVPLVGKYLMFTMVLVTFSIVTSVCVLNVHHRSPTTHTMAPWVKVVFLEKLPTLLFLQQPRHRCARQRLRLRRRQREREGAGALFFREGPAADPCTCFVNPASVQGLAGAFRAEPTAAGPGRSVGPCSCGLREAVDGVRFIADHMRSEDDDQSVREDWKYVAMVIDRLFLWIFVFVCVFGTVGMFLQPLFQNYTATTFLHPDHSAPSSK
T2 sequence (P32297 32-505): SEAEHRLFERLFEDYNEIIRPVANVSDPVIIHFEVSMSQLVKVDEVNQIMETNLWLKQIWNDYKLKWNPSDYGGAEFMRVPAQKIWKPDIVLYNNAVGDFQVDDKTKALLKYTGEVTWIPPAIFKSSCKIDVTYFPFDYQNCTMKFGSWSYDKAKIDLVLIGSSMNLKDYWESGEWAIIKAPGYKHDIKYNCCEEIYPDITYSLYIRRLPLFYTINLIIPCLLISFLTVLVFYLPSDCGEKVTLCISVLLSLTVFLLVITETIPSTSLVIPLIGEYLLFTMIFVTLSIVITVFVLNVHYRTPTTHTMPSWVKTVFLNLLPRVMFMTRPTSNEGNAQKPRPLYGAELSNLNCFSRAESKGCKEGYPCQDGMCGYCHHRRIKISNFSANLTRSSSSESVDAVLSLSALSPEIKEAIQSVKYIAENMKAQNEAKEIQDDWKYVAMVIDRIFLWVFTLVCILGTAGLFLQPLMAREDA
T2 sequence (P30926 22-498): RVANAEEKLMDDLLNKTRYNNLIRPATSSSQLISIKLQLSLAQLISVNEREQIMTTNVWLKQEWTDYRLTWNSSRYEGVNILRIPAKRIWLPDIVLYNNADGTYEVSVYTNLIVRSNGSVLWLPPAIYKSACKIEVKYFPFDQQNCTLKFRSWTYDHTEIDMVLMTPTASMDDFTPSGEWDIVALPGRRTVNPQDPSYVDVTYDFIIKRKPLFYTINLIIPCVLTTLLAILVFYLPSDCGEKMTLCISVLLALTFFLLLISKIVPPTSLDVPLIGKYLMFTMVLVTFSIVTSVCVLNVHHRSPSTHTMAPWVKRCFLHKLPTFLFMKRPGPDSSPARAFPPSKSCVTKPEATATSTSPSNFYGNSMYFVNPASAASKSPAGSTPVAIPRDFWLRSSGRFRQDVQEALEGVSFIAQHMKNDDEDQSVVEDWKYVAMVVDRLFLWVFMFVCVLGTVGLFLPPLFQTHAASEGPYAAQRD

O=C(N1CCCC1)N1CC[C@@H]1COc1ccc(F)nc1 [Example 92]
analgesic dose (rats [1]): >6.2 µmol/kg

C[C@H](NC(=O)OC(C)(C)C)C(=O)N1CC[C@@H]1COc1ccc(F)nc1 [Example 54]
analgesic dose (rats [1]): >6.2 µmol/kg

Clc1ncc(OC[C@@H]2CCN2)cc1Br [Example 17, 5-((2S)-azetidinylmethoxy)-3-bromo-2-chloropyridine hydrochloride]
MED Chung model (μmol/kg, i.p.) (rats [2]): 0.19 µmol/kg | Ki [3]: 0.02 nM | minimal effective dose (mice): 1.9 µmol/kg | IMR-32 % maximal nicotine response at 1 μM Cmpd conc'n [4]: 120%

O=C1CCC(=O)N1CN1CC[C@@H]1COc1ccc(F)nc1 [Example 71]
analgesic dose (rats [1]): 0.62 µmol/kg

α-bungarotoxin
block of the neuroprotective effect by nicotinic antagonists (rat spinal cord cultures): blocked

C[C@]12N[C@H](Cc3ccccc31)c1ccccc12 [MK-801]
block of Glu-induced toxicity (rat spinal cord cultures; Glu 300 μM, MK-801 1 μM): blocked | block of SP-induced toxicity (rat spinal cord cultures): cannot prevent

O=C(Oc1ccccc1)N1CC[C@@H]1COc1ccc(F)nc1 [Example 79]
analgesic dose (rats [1]): 0.62 µmol/kg

Cl.Fc1ncccc1OC[C@@H]1CCN1 [Example 122, 2-Fluoro-3-(2(S)-azetidinylmethoxy)pyridine hydrochloride]
MED Chung model (μmol/kg, i.p.) (rats [2]): 1.9 µmol/kg

CC1(C)CC(=O)C=C(N2CC[C@@H]2COc2ccc(F)nc2)C1 [Example 75]
analgesic dose (rats [1]): 6.2 µmol/kg

Clc1cc(OC[C@@H]2CCN2)cnc1Cl [Example 15, 5-((2S)-azetidinylmethoxy)-2,3-dichloropyridine hydrochloride]
MED Chung model (μmol/kg, i.p.) (rats [2]): NS | Ki [3]: 0.02 nM | minimal effective dose (mice): 1.9 µmol/kg | IMR-32 % maximal nicotine response at 1 μM Cmpd conc'n [4]: 117%

Cc1cncc(OC[C@H]2CCN2)c1 [Example 14, 5-Methyl-3-((2R)-azetidinylmethyloxy)pyridine hydrochloride]
Ki [3]: 0.18 nM | minimal effective dose (mice): 62 µmol/kg | IMR-32 % maximal nicotine response at 1 μM Cmpd conc'n [4]: 15%

CCN1C[C@]2(COC(=O)c3ccccc3N3C(=O)C[C@H](C)C3=O)CC[C@H](OC)[C@@]34[C@@H]5C[C@H]6[C@H](OC)[C@@H]5[C@](O)(C[C@@H]6OC)[C@@](O)([C@@H](OC)[C@H]23)[C@@H]14 [methyllycaconitine]
block of the neuroprotective effect by nicotinic antagonists (rat spinal cord cultures; mecamylamine 10 μM, MLA 10 nM, α-BTX 1 nM): blocked

O=C(Oc1ccc([N+](=O)[O-])cc1)N1CC[C@@H]1COc1ccc(F)nc1 [Example 80]
analgesic dose (rats [1]): 0.62 µmol/kg

COc1ccc(OC(=O)N2CC[C@@H]2COc2ccc(F)nc2)cc1 [Example 81]
analgesic dose (rats [1]): 0.62 µmol/kg

O=C1c2ccccc2C(=O)N1CN1CC[C@@H]1COc1ccc(F)nc1 [Example 72]
analgesic dose (rats [1]): 0.62 µmol/kg

Fc1cncc(OC[C@@H]2CCN2)c1 [Example 10, 5-((2S)-Azetidinylmethyloxy)-3-fluoropyridine dihydrochloride]
MED Chung model (μmol/kg, i.p.) (rats [2]): 0.62 µmol/kg | Ki [3]: 0.09 nM | minimal effective dose (mice): 6.2 µmol/kg | IMR-32 % maximal nicotine response at 1 μM Cmpd conc'n [4]: 28%

O=C(CCSSCCC(=O)N1CC[C@@H]1COc1ccc(F)nc1)N1CC[C@@H]1COc1ccc(F)nc1 [Example 95]
analgesic dose (rats [1]): >6.2 µmol/kg

spantide II
block of SP-induced toxicity (rat spinal cord cultures): blocked

Clc1cc(OC[C@H]2CCN2)cnc1Cl [Example 16, 5-((2R)-azetidinylmethoxy)-2,3-dichloropyridine hydrochloride]
MED Chung model (μmol/kg, i.p.) (rats [2]): 0.19 µmol/kg | Ki [3]: 0.06 nM | minimal effective dose (mice): 6.2 µmol/kg | IMR-32 % maximal nicotine response at 1 μM Cmpd conc'n [4]: 85%
